From patent publication US7335814B2, “Transgenic cells expressing glucosyltransferase nucleic acids” (The University of York, priority 2000, dated 2008)

T1: recombinant GTase A407 (Arabidopsis thaliana, UniProt O81498)
T1 construct: made in house; host or cells: E. coli
T1 sequence (O81498 1-481): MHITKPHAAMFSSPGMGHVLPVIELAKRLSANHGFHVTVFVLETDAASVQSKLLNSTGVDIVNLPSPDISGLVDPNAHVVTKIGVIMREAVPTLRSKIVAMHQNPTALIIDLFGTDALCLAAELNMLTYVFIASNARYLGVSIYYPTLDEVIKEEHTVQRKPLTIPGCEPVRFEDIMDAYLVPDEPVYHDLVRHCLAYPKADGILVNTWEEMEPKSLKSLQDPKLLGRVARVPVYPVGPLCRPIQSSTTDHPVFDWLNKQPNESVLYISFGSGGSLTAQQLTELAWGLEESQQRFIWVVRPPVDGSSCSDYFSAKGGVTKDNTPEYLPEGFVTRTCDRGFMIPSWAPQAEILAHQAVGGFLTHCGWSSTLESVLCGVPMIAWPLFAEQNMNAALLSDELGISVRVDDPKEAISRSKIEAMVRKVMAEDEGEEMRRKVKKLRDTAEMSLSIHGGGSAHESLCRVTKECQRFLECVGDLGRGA

T2: recombinant GTase A320 (Arabidopsis thaliana, UniProt Q9LVF0)
T2 construct: made in house; host or cells: E. coli
T2 sequence (Q9LVF0 1-496): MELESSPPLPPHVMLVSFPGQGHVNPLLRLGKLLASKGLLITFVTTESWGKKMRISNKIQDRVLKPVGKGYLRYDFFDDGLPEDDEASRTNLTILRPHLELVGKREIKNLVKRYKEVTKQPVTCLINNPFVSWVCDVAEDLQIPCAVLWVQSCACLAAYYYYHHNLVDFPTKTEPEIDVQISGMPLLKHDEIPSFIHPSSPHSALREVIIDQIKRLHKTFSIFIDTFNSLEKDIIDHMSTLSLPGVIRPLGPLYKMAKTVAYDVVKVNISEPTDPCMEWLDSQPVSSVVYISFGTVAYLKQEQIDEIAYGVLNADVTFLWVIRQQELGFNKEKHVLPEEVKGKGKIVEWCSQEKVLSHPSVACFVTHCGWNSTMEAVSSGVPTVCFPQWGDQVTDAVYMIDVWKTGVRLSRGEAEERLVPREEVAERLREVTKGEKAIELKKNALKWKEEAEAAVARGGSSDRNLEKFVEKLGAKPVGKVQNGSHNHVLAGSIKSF

T3: UGT71C1 (Arabidopsis thaliana, UniProt O82381)
T3 construct: GST (N); made in house; host or cells: E. coli
T3 sequence (O82381 1-481): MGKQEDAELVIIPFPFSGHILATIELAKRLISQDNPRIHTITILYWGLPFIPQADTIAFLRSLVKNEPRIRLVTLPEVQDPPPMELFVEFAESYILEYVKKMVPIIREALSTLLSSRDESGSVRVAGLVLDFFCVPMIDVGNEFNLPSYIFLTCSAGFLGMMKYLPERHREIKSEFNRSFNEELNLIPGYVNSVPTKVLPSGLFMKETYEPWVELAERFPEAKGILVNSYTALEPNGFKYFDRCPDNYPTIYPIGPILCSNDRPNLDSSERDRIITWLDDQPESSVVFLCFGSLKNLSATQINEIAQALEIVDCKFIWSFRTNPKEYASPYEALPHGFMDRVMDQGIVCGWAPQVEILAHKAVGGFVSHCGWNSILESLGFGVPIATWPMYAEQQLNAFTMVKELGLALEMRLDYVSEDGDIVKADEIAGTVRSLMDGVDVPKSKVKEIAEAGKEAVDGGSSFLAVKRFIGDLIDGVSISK

T4: recombinant GTase A961 (Arabidopsis thaliana, UniProt O82381)
T4 construct: made in house; host or cells: E. coli
T4 sequence (O82381 1-481): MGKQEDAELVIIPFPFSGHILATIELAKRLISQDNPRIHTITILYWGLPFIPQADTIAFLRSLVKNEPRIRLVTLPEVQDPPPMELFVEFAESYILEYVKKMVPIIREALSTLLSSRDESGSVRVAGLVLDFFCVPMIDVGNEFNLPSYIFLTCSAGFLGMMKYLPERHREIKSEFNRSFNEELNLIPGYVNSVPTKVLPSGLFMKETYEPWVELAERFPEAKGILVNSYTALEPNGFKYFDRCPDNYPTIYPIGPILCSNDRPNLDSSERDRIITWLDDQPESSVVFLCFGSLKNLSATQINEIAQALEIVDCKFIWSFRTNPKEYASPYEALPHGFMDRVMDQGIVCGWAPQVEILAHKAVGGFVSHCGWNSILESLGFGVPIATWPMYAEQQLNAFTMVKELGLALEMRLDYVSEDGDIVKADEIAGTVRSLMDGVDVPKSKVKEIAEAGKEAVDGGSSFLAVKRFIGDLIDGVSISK

T5: recombinant GTase A911 (Arabidopsis thaliana, UniProt O22182)
T5 sequence (O22182 1-456): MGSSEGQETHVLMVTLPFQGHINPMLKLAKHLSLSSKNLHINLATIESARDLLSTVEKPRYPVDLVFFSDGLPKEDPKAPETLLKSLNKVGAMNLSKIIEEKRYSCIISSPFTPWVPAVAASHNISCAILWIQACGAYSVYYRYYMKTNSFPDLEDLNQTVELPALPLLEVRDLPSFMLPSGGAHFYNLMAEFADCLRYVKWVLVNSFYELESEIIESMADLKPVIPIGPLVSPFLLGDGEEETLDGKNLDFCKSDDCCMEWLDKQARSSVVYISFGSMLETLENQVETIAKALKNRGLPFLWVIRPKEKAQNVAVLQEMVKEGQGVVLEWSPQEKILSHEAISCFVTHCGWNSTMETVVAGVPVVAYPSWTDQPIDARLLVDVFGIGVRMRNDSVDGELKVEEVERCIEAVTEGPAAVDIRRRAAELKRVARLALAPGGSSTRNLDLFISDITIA

T6: recombinant GTase A119 (Arabidopsis thaliana, UniProt Q9LVR1)
T6 construct: made in house; host or cells: E. coli
T6 sequence (Q9LVR1 1-481): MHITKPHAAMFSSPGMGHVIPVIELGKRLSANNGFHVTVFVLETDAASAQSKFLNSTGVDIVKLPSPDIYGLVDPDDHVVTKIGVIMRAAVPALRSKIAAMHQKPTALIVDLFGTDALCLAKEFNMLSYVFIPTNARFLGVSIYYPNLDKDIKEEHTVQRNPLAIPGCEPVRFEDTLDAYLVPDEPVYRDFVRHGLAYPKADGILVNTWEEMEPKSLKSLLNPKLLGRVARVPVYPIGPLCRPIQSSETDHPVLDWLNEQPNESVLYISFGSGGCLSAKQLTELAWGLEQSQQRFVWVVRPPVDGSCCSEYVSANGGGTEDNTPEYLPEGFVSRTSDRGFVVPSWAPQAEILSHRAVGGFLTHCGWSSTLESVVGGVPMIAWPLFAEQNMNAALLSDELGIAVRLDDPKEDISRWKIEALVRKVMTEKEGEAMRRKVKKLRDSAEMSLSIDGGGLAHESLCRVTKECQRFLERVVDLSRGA

T7: recombinant GTase A062 (Arabidopsis thaliana, UniProt Q9LR44)
T7 construct: made in house; host or cells: E. coli
T7 sequence (Q9LR44 1-469): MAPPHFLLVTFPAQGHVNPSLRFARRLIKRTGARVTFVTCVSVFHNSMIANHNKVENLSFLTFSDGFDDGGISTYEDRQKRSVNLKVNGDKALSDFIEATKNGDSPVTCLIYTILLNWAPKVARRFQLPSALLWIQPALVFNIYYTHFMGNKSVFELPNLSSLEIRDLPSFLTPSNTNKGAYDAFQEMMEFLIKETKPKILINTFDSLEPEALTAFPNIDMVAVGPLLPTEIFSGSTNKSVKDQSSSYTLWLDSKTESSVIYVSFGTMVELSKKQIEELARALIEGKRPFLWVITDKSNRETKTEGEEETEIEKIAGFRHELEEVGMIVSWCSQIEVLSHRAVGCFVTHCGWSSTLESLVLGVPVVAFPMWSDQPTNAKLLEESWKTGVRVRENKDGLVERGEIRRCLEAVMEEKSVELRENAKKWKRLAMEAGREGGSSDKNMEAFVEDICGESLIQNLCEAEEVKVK


Assays:
recombinant GTase A407 = target: T1, recombinant GTase A407; experiment: Specific activity of recombinant GTase producing O-glucosides against lignin precursors (HPLC); assay type: biochemical; settings: 30° C.; ND = not detected
recombinant GTase A320 = target: T2, recombinant GTase A320; experiment: Specific activity of recombinant GTase producing glucose ester against lignin precursors (HPLC); assay type: biochemical; settings: 5 mM UDPG, 0.2 μg GTase, 200 μl, 20° C., 30 min
UGT71C1 = target: T3, UGT71C1; experiment: UGT71C1 glucosyltransferase specific activity towards phenolic compounds (reverse-phase HPLC); assay type: biochemical; settings: 1 mM phenolic compound, 5 mM UDP-glucose, 50 mM TRIS-HCl pH 7.0, 30° C., 30 min; mean of three replicates ± standard deviation
recombinant GTase A961 = target: T4, recombinant GTase A961; experiment: Specific activity of recombinant GTase producing O-glucosides against lignin precursors (HPLC); assay type: biochemical; settings: 30° C.; ND = not detected
recombinant GTase A911 = target: T5, recombinant GTase A911; experiment: Specific activity of recombinant GTase producing glucose ester against lignin precursors (HPLC); assay type: biochemical; design: made in house; host or cells: E. coli; settings: 0.5 ml of potential substrates, 5 mM UDPG, 0.2 μg GTase, 200 μl, 20° C., 30 min
recombinant GTase A43 = target: T8, recombinant GTase A43 (Arabidopsis thaliana, UniProt O23402); experiment: as above; assay type: biochemical; settings: 0.5 ml of potential substrates, 5 mM UDPG, 0.2 μg GTase, 200 μl, 20° C., 30 min
T8 construct: made in house; host or cells: E. coli

recombinant GTase A233 = target: T9, recombinant GTase A233 (Arabidopsis thaliana, UniProt Q8W491); experiment: Specific activity of recombinant GTase producing O-glucosides against lignin precursors (HPLC); assay type: biochemical; settings: 30° C.; ND = not detected
T9 construct: made in house; host or cells: E. coli

recombinant GTase A119 = target: T6, recombinant GTase A119; experiment: as above; assay type: biochemical; settings: 30° C.; ND = not detected
recombinant GTase A062 = target: T7, recombinant GTase A062; experiment: Specific activity of recombinant GTase producing glucose ester against lignin precursors (HPLC); assay type: biochemical; settings: 0.5 ml of potential substrates, 5 mM UDPG, 0.2 μg GTase, 200 μl, 20° C., 30 min
[1] = substrate: O=C(O)C=Cc1ccccc1; experiment: Kinetic studies (Michaelis-Menten) on recombinant GTase producing glucose esters; assay type: biochemical, Arabidopsis thaliana; settings: other: glucose ester formation; pH 7.0; 30.0 °C
[2] = substrate: O=C(O)/C=C/c1ccc(O)cc1; experiment: as above; assay type: biochemical, Arabidopsis thaliana; settings: other: glucose ester formation; pH 7.0; 30.0 °C

Molecule | Specific activity of A407 (substrate converted to 4-O-glucoside) (recombinant GTase A407) | Specific activity of A320 (substrate converted to glucose ester) (recombinant GTase A320) | Specific activity (UGT71C1) (UGT71C1) | Specific activity of A961 (substrate converted to 4-O-glucoside) (recombinant GTase A961) | Specific activity of A911 (substrate converted to glucose ester) (recombinant GTase A911) | Specific activity of A43 (substrate converted to glucose ester) (recombinant GTase A43) | Specific activity of A233 (substrate converted to 4-O-glucoside) (recombinant GTase A233) | Specific activity of A119 (substrate converted to 4-O-glucoside) (recombinant GTase A119) | Specific activity of A062 (substrate converted to glucose ester) (recombinant GTase A062) | Km [1] | Vmax [1] | Km [2] | Vmax [2]
O=C(O)C=Cc1ccc(O)c(O)c1 [Caffeic acid, 3,4-dihydroxycinnamic acid] | 0.07 nkat/mg | 0.05 nkat/mg | 2.9 ± 0.8 nkat/mg | 0.07 nkat/mg | 0.77 nkat/mg | 0.01 nkat/mg | 0.48 nkat/mg | 0.13 nkat/mg | 0.26 nkat/mg |  |  |  | 
recombinant GTase A062 (Arabidopsis thaliana) (protein, made in house; host or cells: E. coli) MAPPHFLLVTFPAQGHVNPSLRFARRLIKRTGARVTFVTCVSVFHNSMIANHNKVENLSFLTFSDGFDDGGISTYEDRQKRSVNLKVNGDKALSDFIEATKNGDSPVTCLIYTILLNWAPKVARRFQLPSALLWIQPALVFNIYYTHFMGNKSVFELPNLSSLEIRDLPSFLTPSNTNKGAYDAFQEMMEFLIKETKPKILINTFDSLEPEALTAFPNIDMVAVGPLLPTEIFSGSTNKSVKDQSSSYTLWLDSKTESSVIYVSFGTMVELSKKQIEELARALIEGKRPFLWVITDKSNRETKTEGEEETEIEKIAGFRHELEEVGMIVSWCSQIEVLSHRAVGCFVTHCGWSSTLESLVLGVPVVAFPMWSDQPTNAKLLEESWKTGVRVRENKDGLVERGEIRRCLEAVMEEKSVELRENAKKWKRLAMEAGREGGSSDKNMEAFVEDICGESLIQNLCEAEEVKVK |  |  |  |  |  |  |  |  |  | 4.33 mM | 2.87 nkat/mg | 5.05 mM | 4.91 nkat/mg
